Source: patent publication US11760722B2 (priority 2022, dated 2023)
Where two headings read alike, the source gives them in different places.

Legend:
[1] = system: human coronavirus (HCoV) 229E; assay: microbe, parasite or virus in culture; type: cell-based, human coronavirus 229E; conditions: MRCS cells, HCoV 229E, 3 days, CellTiter Glo, read-out: 229E CPE EC50
[2] = system: SARS-CoV-2 replicon; assay: microbe, parasite or virus in culture; type: cell-based; conditions: read-out: Replicon EC50
[3] = unidentified human coronavirus, 72 h
[4] = Severe acute respiratory syndrome coronavirus 2, Huh-7, 24 h

| SMILES | EC50 [1, 3] [nM] | EC50 [2, 4] [nM] | EC50 [1] [nM] | EC50 [2] [nM] |
| --- | --- | --- | --- | --- |
| CC(C)(C)[C@H](NC(=O)c1ccc(F)cc1)C(=O)N1C[C@H]2[C@@H]([C@H]1C(=O)N[C@H](C#N)C[C@@H]1CCNC1=O)C2(C)C [Compound 94] | 4290 | 960 | – | – |
| CC(C)(C)[C@H](NS(=O)(=O)c1ccccc1)C(=O)N1C[C@H]2[C@@H]([C@H]1C(=O)N[C@H](C#N)C[C@@H]1CCNC1=O)C2(C)C [Compound 95] | 358 | 37 | 521 | 68 |
| COC(=O)NS(=O)(=O)N[C@H](C(=O)N1C[C@H]2[C@@H]([C@H]1C(=O)N[C@H](C#N)C[C@@H]1CCNC1=O)C2(C)C)C(C)(C)C [Compound 97] | > 30000 | > 10000 | – | – |
| CC(C)(C)[C@H](NS(=O)(=O)C[C@]12CC[C@H](CC1=O)C2(C)C)C(=O)N1C[C@H]2[C@@H]([C@H]1C(=O)N[C@H](C#N)C[C@@H]1CCNC1=O)C2(C)C [Compound 98] | 3310 | 3650 | – | – |
| CC(C)(C)[C@H](NS(=O)(=O)c1ccc(F)c(F)c1)C(=O)N1C[C@H]2[C@@H]([C@H]1C(=O)N[C@H](C#N)C[C@@H]1CCNC1=O)C2(C)C [Compound 99] | 271 | 88 | 344 | 100 |
| COc1ccc(S(=O)(=O)N[C@H](C(=O)N2C[C@H]3[C@@H]([C@H]2C(=O)N[C@H](C#N)C[C@@H]2CCNC2=O)C3(C)C)C(C)(C)C)cc1 [Compound 101] | 514 | 24 | 910 | 41 |
| CC(C)(C)[C@H](NC(=O)C(F)(F)F)C(=O)N1C[C@H]2[C@@H]([C@H]1C(=O)N[C@H](/C=C/C#N)C[C@@H]1CCNC1=O)C2(C)C [Compound 103] | 16900 | 650 | – | – |
| CN(C)C(C)(C)C(=O)N[C@H](C(=O)N1C[C@H]2[C@@H]([C@H]1C(=O)N[C@H](C#N)C[C@@H]1CCNC1=O)C2(C)C)C(C)(C)C [Compound 104] | 12700 | > 10000 | – | – |
| CC1(C)[C@@H]2[C@@H](C(=O)N[C@H](C#N)C[C@@H]3CCNC3=O)N(C(=O)[C@@H](NC(=O)C(F)(F)F)c3ccc(F)cc3)C[C@@H]21 [Compound 105] | 6180 | 650 | – | – |
| CC(C)(C)[C@H](NC(=O)c1ccc2ccccc2c1)C(=O)N1C[C@H]2[C@@H]([C@H]1C(=O)N[C@H](C#N)C[C@@H]1CCNC1=O)C2(C)C [Compound 106] | 4020 | 860 | – | – |
| CC(C)(C)[C@H](NC(=O)c1ccccn1)C(=O)N1C[C@H]2[C@@H]([C@H]1C(=O)N[C@H](C#N)C[C@@H]1CCNC1=O)C2(C)C [Compound 107] | 23300 | 3770 | – | – |
| CC(C)(C)[C@H](NC(=O)c1ccc(F)c(F)c1)C(=O)N1C[C@H]2[C@@H]([C@H]1C(=O)N[C@H](C#N)C[C@@H]1CCNC1=O)C2(C)C [Compound 108] | 3900 | 330 | – | – |
| CC(C)(C)[C@H](NC(=S)N1CCCCC1)C(=O)N1C[C@H]2[C@@H]([C@H]1C(=O)N[C@H](C#N)C[C@@H]1CCNC1=O)C2(C)C [Compound 109] | 985 | 875 | – | – |
| CC(C)[C@H]1CC[C@H](C)C[C@@H]1OCC(=O)N[C@H](C(=O)N1C[C@H]2[C@@H]([C@H]1C(=O)N[C@H](C#N)C[C@@H]1CCNC1=O)C2(C)C)C(C)(C)C [Compound 110] | 23500 | 1360 | – | – |
| CC(C)(C)[C@H](NS(=O)(=O)c1cc2ccccc2s1)C(=O)N1C[C@H]2[C@@H]([C@H]1C(=O)N[C@H](C#N)C[C@@H]1CCNC1=O)C2(C)C [Compound 111] | 130 | 3.4 | – | 4.6 |
| CC(C)(C)[C@H](NC(=O)C1(CS(=O)(=O)C(C)(C)C)CCCCC1)C(=O)N1C[C@H]2[C@@H]([C@H]1C(=O)N[C@H](C#N)C[C@@H]1CCNC1=O)C2(C)C [Compound 115] | > 30000 | 3000 | – | – |
| CN(C)[C@@H]1C[C@@H](C(=O)N[C@H](C#N)C[C@@H]2CCNC2=O)N(C(=O)[C@@H](NC(=O)C(F)(F)F)C(C)(C)C)C1 [Compound 116] | > 30000 | 740 | – | – |
| CC(C)(C)[C@H](NC(=O)c1cccc2ccccc12)C(=O)N1C[C@H]2[C@@H]([C@H]1C(=O)N[C@H](C#N)C[C@@H]1CCNC1=O)C2(C)C [Compound 119] | 546 | 340 | – | – |
| CC(C)(C)[C@H](NC(=O)c1ccc2c(c1)CCC2)C(=O)N1C[C@H]2[C@@H]([C@H]1C(=O)N[C@H](C#N)C[C@@H]1CCNC1=O)C2(C)C [Compound 120] | 4720 | 2240 | – | – |
| CC(C)(C)[C@H](NS(=O)(=O)c1ccns1)C(=O)N1C[C@H]2[C@@H]([C@H]1C(=O)N[C@H](C#N)C[C@@H]1CCNC1=O)C2(C)C [Compound 122] | 147 | 47 | – | 62 |

| SMILES | EC50 [1, 3] [nM] | EC50 [2, 4] [nM] | EC50 [1] [nM] | EC50 [2] [nM] |
| --- | --- | --- | --- | --- |
| CC(C)(C)[C@H](NC(=S)NC1CC(F)(F)C1)C(=O)N1C[C@H]2[C@@H]([C@H]1C(=O)N[C@H](C#N)C[C@@H]1CCNC1=O)C2(C)C [Compound 123] | 700 | 790 | – | – |
| CC(C)(C)[C@H](NC(=S)NC1CCC1)C(=O)N1C[C@H]2[C@@H]([C@H]1C(=O)N[C@H](C#N)C[C@@H]1CCNC1=O)C2(C)C [Compound 124] | 801 | 500 | – | – |
| CC(C)(C)[C@H](NC(=S)NC1CCC1)C(=O)N1C[C@H]2[C@@H]([C@H]1C(=O)N[C@H](C#N)C[C@@H]1CCN(C(=O)C(F)(F)F)C1=O)C2(C)C [Compound 125] | 708 | 68 | – | – |
| CC1(NC(=S)N[C@H](C(=O)N2C[C@H]3[C@@H]([C@H]2C(=O)N[C@H](C#N)C[C@@H]2CCNC2=O)C3(C)C)C(C)(C)C)CC1 [Compound 126] | 193 | 24 | – | – |
| CNC(=O)N[C@H](C(=O)N1C[C@H](N(C)C)C[C@H]1C(=O)N[C@H](C#N)C[C@@H]1CCNC1=O)C(C)(C)C [Compound 128] | > 30000 | > 10000 | – | – |
| COC(=O)N[C@H](C(=O)N1C[C@H](N(C)C)C[C@H]1C(=O)N[C@H](C#N)C[C@@H]1CCNC1=O)C(C)(C)C [Compound 129] | > 30000 | 6870 | – | – |
| COc1ccccc1S(=O)(=O)N[C@H](C(=O)N1C[C@H]2[C@@H]([C@H]1C(=O)N[C@H](C#N)C[C@@H]1CCNC1=O)C2(C)C)C(C)(C)C [Compound 130] | 1090 | 93 | 1230 | 130 |
| C=CCS(=O)(=O)N[C@H](C(=O)N1C[C@H]2[C@@H]([C@H]1C(=O)N[C@H](C#N)C[C@@H]1CCNC1=O)C2(C)C)C(C)(C)C [Compound 131] | 657 | 120 | – | 180 |
| CC(C)(C)[C@H](NS(=O)(=O)CC#N)C(=O)N1C[C@H]2[C@@H]([C@H]1C(=O)N[C@H](C#N)C[C@@H]1CCNC1=O)C2(C)C [Compound 132] | 589 | 64 | 591 | 75 |
| CC(C)c1cc(C(C)C)c(S(=O)(=O)N[C@H](C(=O)N2C[C@H]3[C@@H]([C@H]2C(=O)N[C@H](C#N)C[C@@H]2CCNC2=O)C3(C)C)C(C)(C)C)c(C(C)C)c1 [Compound 134] | > 30000 | 7990 | – | > 10000 |
| CC(C)(C)[C@H](NS(=O)(=O)c1cc2c(s1)CCCC2)C(=O)N1C[C@H]2[C@@H]([C@H]1C(=O)N[C@H](C#N)C[C@@H]1CCNC1=O)C2(C)C [Compound 135] | 64 | 24 | 67 | 34 |
| CC(C)(C)[C@H](NC(=O)CCC(F)(F)F)C(=O)N1C[C@H]2[C@@H]([C@H]1C(=O)N[C@H](C#N)C[C@@H]1CCNC1=O)C2(C)C [Compound 138] | 622 | 330 | – | 500 |
| C/C(=C\C(=O)N[C@H](C(=O)N1C[C@H]2[C@@H]([C@H]1C(=O)N[C@H](C#N)C[C@@H]1CCNC1=O)C2(C)C)C(C)(C)C)C(F)(F)F [Compound 140] | 619 | 350 | – | 410 |
| CC(C)(C)[C@H](NC(=O)C(F)(F)Cl)C(=O)N1C[C@H]2[C@@H]([C@H]1C(=O)N[C@H](C#N)C[C@@H]1CCNC1=O)C2(C)C [Compound 141] | 68 | 4.8 | – | 7 |
| Cc1c(C)c(C)c(S(=O)(=O)N[C@H](C(=O)N2C[C@H]3[C@@H]([C@H]2C(=O)N[C@H](C#N)C[C@@H]2CCNC2=O)C3(C)C)C(C)(C)C)c(C)c1C [Compound 142] | 283 | 160 | – | 170 |
| CC(C)(C)[C@H](NC(=O)C1(C(F)(F)F)CC1)C(=O)N1C[C@H]2[C@@H]([C@H]1C(=O)N[C@H](C#N)C[C@@H]1CCNC1=O)C2(C)C [Compound 151] | 207 | 85 | – | – |
| CC(C)(C)[C@H](NC(=O)C#Cc1ccc(C(F)(F)F)cc1)C(=O)N1C[C@H]2[C@@H]([C@H]1C(=O)N[C@H](C#N)C[C@@H]1CCNC1=O)C2(C)C [Compound 154] | 511 | 180 | – | – |
| COc1cc(/C=C/C(=O)N[C@H](C(=O)N2C[C@H]3[C@@H]([C@H]2C(=O)N[C@H](C#N)C[C@@H]2CCNC2=O)C3(C)C)C(C)(C)C)cc(OC)c1 [Compound 157] | 6940 | 320 | – | – |
| CC(C)(C)[C@H](NC(=O)C=C(C(F)(F)F)C(F)(F)F)C(=O)N1C[C@H]2[C@@H]([C@H]1C(=O)N[C@H](C#N)C[C@@H]1CCNC1=O)C2(C)C [Compound 158] | > 30000 | > 10000 | – | – |
| CC(C)(C)[C@H](NC(=O)C(F)C(F)(F)F)C(=O)N1C[C@H]2[C@@H]([C@H]1C(=O)N[C@H](C#N)C[C@@H]1CCNC1=O)C2(C)C (stereo partly shown) [Compound 159] | 134 | 30 | – | – |
